Test results taken from ChEMBL document CHEMBL1201862, “PubChem BioAssay data set” (2004).
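Where inhibition never reached the appropriate level, the endpoint shown equals the highest concentration tested. Otherwise, values were interpolated linearly from a five-concentration, 48-hour dose response in 96-well plates. Here, GI50 denotes the concentration required for 50% inhibition of growth.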 Activity calls are given as the source filed them. No stated cut-off is given here; in the data, active = GI50 up to about 1.1 µM and inactive = higher.

Columns and labels:
Assay in all cases: inhibition of tumour cell growth, NCI panel, 48 h
BT-549 = tested on: BT-549
MOLT-4 = tested on: MOLT-4
SN12C = tested on: SN12C
MDA-MB-435 = tested on: MDA-MB-435
KM12 = tested on: KM12
CAKI-1 = tested on: CAKI-1
NCI-H522 = tested on: NCI-H522
T47D = tested on: T47D
HCT-15 = tested on: HCT-15
DU-145 = tested on: DU-145
CCRF-CEM = tested on: CCRF-CEM
SF-295 = tested on: SF-295
HCT-116 = tested on: HCT-116
NCI-H460 = tested on: NCI-H460
Hs-578T = tested on: Hs-578T
Malme-3M = tested on: Malme-3M
EKVX = tested on: EKVX
OVCAR-4 = tested on: OVCAR-4
UO-31 = tested on: UO-31
A498 = tested on: A498

SMILES	GI50 (BT-549)	GI50 (MOLT-4)	GI50 (SN12C)	GI50 (MDA-MB-435)	GI50 (KM12)	GI50 (CAKI-1)	GI50 (NCI-H522)	GI50 (T47D)	GI50 (HCT-15) [µM]	GI50 (DU-145)	GI50 (CCRF-CEM)	GI50 (SF-295)	GI50 (HCT-116)	GI50 (NCI-H460)	GI50 (Hs-578T)	GI50 (Malme-3M)	GI50 (EKVX)	GI50 (OVCAR-4)	GI50 (UO-31)	GI50 (A498)
O=C1/C(=C/c2ccc(O)cc2)CCc2ccc([N+](=O)[O-])cc21	31.3 µM (inactive)	3.63 µM (inactive)	> 100 µM (inactive)	> 100 µM (inactive)	> 76 µM (inactive)	> 82.6 µM (inactive)	2.65 µM (inactive)	68.7 µM (inactive)	> 100	55.3 µM (inactive)	0.419 µM (active)	63.1 µM (inactive)	75.5 µM (inactive)	45.9 µM (inactive)	35.9 µM (inactive)	98.2 µM (inactive)	> 89.5 µM (inactive)	> 90.6 µM (inactive)	23 µM (inactive)	34.6 µM (inactive)
O=c1cc(-c2ccccc2)nc(-n2[nH]c3c(c2=O)CCCC3)[nH]1	9.38 µM (inactive)	2.9 µM (inactive)	10.8 µM (inactive)	4.59 µM (inactive)	13.3 µM (inactive)	7.18 µM (inactive)	12.1 µM (inactive)	1.56 µM (inactive)	1.7	1.57 µM (inactive)	0.769 µM (active)	4.33 µM (inactive)	2.7 µM (inactive)	1.08 µM (active)	23.4 µM (inactive)	11.1 µM (inactive)	4.94 µM (inactive)	1.85 µM (inactive)	7.29 µM (inactive)	17.6 µM (inactive)
C=C1C(=O)OC2/C=C(\COC(C)=O)CCC(OC(C)=O)C3=CC(OC3=O)C12 (stereo not given)	5.38 µM (inactive)	1.58 µM (inactive)	8.87 µM (inactive)	10.6 µM (inactive)	12.7 µM (inactive)	3.03 µM (inactive)	0.526 µM (active)	16.9 µM (inactive)	2.94	36.1 µM (inactive)	1.01 µM (active)	18 µM (inactive)	2.48 µM (inactive)	19.5 µM (inactive)	24.2 µM (inactive)	2.15 µM (inactive)	11.7 µM (inactive)	23.3 µM (inactive)	17.3 µM (inactive)	16 µM (inactive)
Cc1ccccc1NC(=O)CC(=O)NNC(Sc1ccccc1)c1cc(/N=N/c2ccc(Br)cc2)ccc1O (stereo not given)	3.72 µM (inactive)	0.332 µM (active)	2.49 µM (inactive)	3.65 µM (inactive)	4.79 µM (inactive)	2.53 µM (inactive)	6.01 µM (inactive)	3.93 µM (inactive)	0.836	2.21 µM (inactive)	0.43 µM (active)	2.75 µM (inactive)	0.308 µM (active)	0.658 µM (active)	> 10 µM (inactive)	3.26 µM (inactive)	5.02 µM (inactive)	2.09 µM (inactive)	2.68 µM (inactive)	2.4 µM (inactive)
CCOC(=O)C(NC(=O)CC)(Nc1ccc(S(=O)(=O)Nc2ccc(OC)nn2)cc1)C(F)(F)F (stereo not given)	> 100 µM (inactive)	> 100 µM (inactive)	> 100 µM (inactive)	> 100 µM (inactive)	> 100 µM (inactive)	> 100 µM (inactive)	> 100 µM (inactive)	> 100 µM (inactive)	> 100	> 100 µM (inactive)	> 100 µM (inactive)	> 100 µM (inactive)	> 100 µM (inactive)	> 100 µM (inactive)	> 100 µM (inactive)	> 100 µM (inactive)	> 100 µM (inactive)	> 100 µM (inactive)	> 100 µM (inactive)	> 100 µM (inactive)
CC1=C(C(=O)Nc2ccccc2)C(c2ccc(C3C(C(=O)Nc4ccccc4)=C(C)NC(C)=C3C(=O)Nc3ccccc3)cc2)C(C(=O)Nc2ccccc2)=C(C)N1	2.55 µM (inactive)	1.96 µM (inactive)	2.04 µM (inactive)	1.86 µM (inactive)	2.09 µM (inactive)	4.02 µM (inactive)	1.54 µM (inactive)	2.7 µM (inactive)	2.72	> 10 µM (inactive)	1.58 µM (inactive)	2.88 µM (inactive)	2 µM (inactive)	2.67 µM (inactive)	2.88 µM (inactive)	1.89 µM (inactive)	4.72 µM (inactive)	6.03 µM (inactive)	9.27 µM (inactive)	8.99 µM (inactive)
CCCCCCOc1ccc(NC2=C(Cl)C(=O)c3c(O)ccc(O)c3C2=O)cc1	3.25 µM (inactive)	2.31 µM (inactive)	1.86 µM (inactive)	1.72 µM (inactive)	1.88 µM (inactive)	5.28 µM (inactive)	2.15 µM (inactive)	2.03 µM (inactive)	1.91	5.9 µM (inactive)	2.49 µM (inactive)	5.81 µM (inactive)	1.6 µM (inactive)	1.01 µM (active)	3.35 µM (inactive)	1.83 µM (inactive)	> 10 µM (inactive)	4.14 µM (inactive)	2.2 µM (inactive)	4.57 µM (inactive)
Clc1ccc2oc(CCc3ccccc3)nc2c1	49.5 µM (inactive)	35.4 µM (inactive)	66.1 µM (inactive)	44.2 µM (inactive)	37.3 µM (inactive)	38.2 µM (inactive)	35.6 µM (inactive)	20.5 µM (inactive)	38.5	48.1 µM (inactive)	29.8 µM (inactive)	33.6 µM (inactive)	36.2 µM (inactive)	59.2 µM (inactive)	> 100 µM (inactive)	> 100 µM (inactive)	32.5 µM (inactive)	52 µM (inactive)	62.7 µM (inactive)	26.3 µM (inactive)
O=C1c2c(Br)sc(Br)c2[C@@H](O)[C@H]1O	17.9 µM (inactive)	5.97 µM (inactive)	16.3 µM (inactive)	10.7 µM (inactive)	21.2 µM (inactive)	18.4 µM (inactive)	1.82 µM (inactive)	19.4 µM (inactive)	11.4	16.4 µM (inactive)	2.32 µM (inactive)	18.1 µM (inactive)	16.8 µM (inactive)	17.2 µM (inactive)	23.1 µM (inactive)	20.4 µM (inactive)	16.7 µM (inactive)	14.1 µM (inactive)	17.1 µM (inactive)	68.1 µM (inactive)
Cc1ccc2c(c1)C(=S)N1CSCC1c1nncn1-2 (stereo not given)	> 100 µM (inactive)	> 100 µM (inactive)	> 100 µM (inactive)	> 100 µM (inactive)	> 100 µM (inactive)	> 100 µM (inactive)	> 100 µM (inactive)	> 100 µM (inactive)	> 100	> 100 µM (inactive)	> 100 µM (inactive)	> 100 µM (inactive)	> 100 µM (inactive)	> 100 µM (inactive)	> 100 µM (inactive)	> 100 µM (inactive)	> 100 µM (inactive)	> 100 µM (inactive)	> 100 µM (inactive)	> 100 µM (inactive)
Cc1c(C)c(CC(=O)N2CC2)c(C)c(C)c1CC(=O)N1CC1	21.9 µM (inactive)	0.441 µM (active)	4.03 µM (inactive)	16 µM (inactive)	17.1 µM (inactive)	2.12 µM (inactive)	9.02 µM (inactive)	6.61 µM (inactive)	16.8	2.1 µM (inactive)	1.15 µM (inactive)	3.4 µM (inactive)	9.02 µM (inactive)	0.337 µM (active)	30.3 µM (inactive)	12.1 µM (inactive)	23.2 µM (inactive)	19.1 µM (inactive)	13.5 µM (inactive)	16 µM (inactive)
COc1cc(S(=O)(=O)Nc2nc(-c3ccc(N)cc3)cs2)ccc1Cl	51.9 µM (inactive)	53.7 µM (inactive)	34.4 µM (inactive)	83.6 µM (inactive)	72.1 µM (inactive)	73.5 µM (inactive)	56 µM (inactive)	38.5 µM (inactive)	63.8	> 100 µM (inactive)	48.5 µM (inactive)	43.4 µM (inactive)	65.2 µM (inactive)	84.9 µM (inactive)	91.4 µM (inactive)	> 100 µM (inactive)	42.7 µM (inactive)	34 µM (inactive)	85.7 µM (inactive)	84.3 µM (inactive)
CC(C)(O)CCC(O)C(C)(O)C1CCC2(O)C3=CC(=O)C4(O)CC(O)C(O)CC4(C)C3CCC12C.CC(C)(O)CCC(O)C(C)(O)C1CCC2(O)C3=CC(=O)C4CC(O)C(O)CC4(C)C3CCC12C (stereo not given)	> 100 µM (inactive)	> 100 µM (inactive)	> 100 µM (inactive)	> 100 µM (inactive)	> 100 µM (inactive)	> 100 µM (inactive)	> 100 µM (inactive)	> 100 µM (inactive)	> 100	> 100 µM (inactive)	> 100 µM (inactive)	> 100 µM (inactive)	> 100 µM (inactive)	> 100 µM (inactive)	> 100 µM (inactive)	> 100 µM (inactive)	> 100 µM (inactive)	> 100 µM (inactive)	> 100 µM (inactive)	> 100 µM (inactive)
COc1cc(/C=C(\C#N)C(N)=C(C#N)C#N)cc(O)c1O	> 100 µM (inactive)	55.2 µM (inactive)	> 36 µM (inactive)	59.3 µM (inactive)	> 84.3 µM (inactive)	> 100 µM (inactive)	36 µM (inactive)	91.8 µM (inactive)	> 68.5	> 100 µM (inactive)	22.7 µM (inactive)	> 77.1 µM (inactive)	> 70.5 µM (inactive)	> 89.1 µM (inactive)	42.9 µM (inactive)	> 100 µM (inactive)	> 89.7 µM (inactive)	> 100 µM (inactive)	> 77.8 µM (inactive)	> 100 µM (inactive)
